One test addresses Der p 1 (Dermatophagoides pteronyssinus (European house dust mite), UniProt P08176). The experiment in a line: Der p 1 enzyme activity assay (FRET fluorogenic substrate). It counts as biochemical.
Test [1] concerns Brown Norway rats sensitized to HDM allergens. The experiment in a line: Allergen challenge study in vivo (acute allergic bronchoconstriction). Also on record: species or system rat. To be noted: challenge 2 hours after intratracheal dosing (100 μL of a 40 μM solution), P<0.05, Mann-Whitney Rank Sum Test. The protocol: The studies were performed in male Brown Norway rats (approximate weight 350 g at time of allergen challenge) obtained from Harlan UK Ltd. Each animal was allocated a unique identification number after sensitisation, identified by a waterproof tail mark, and randomly assigned to a treatment group. All studies were conducted in accordance with the Animals (Scientific Procedures) Act 1986, with UK Home Office Guidance on the implementation of the Act and with all applicable Codes of Practice for the care and housing of laboratory animals.
A mixture of HDM allergens was harvested from a laboratory culture of Dermatophagoides pteronyssinus. Allergen dose was standardized according to the Der p 1 content of the mixture as determined by an ELISA measurement referenced against the IUIS standard for Der p 1. […]
On Day 21 of the sensitization and challenge protocol, rats were anaesthetised with pentobarbitone (100 mg/kg, i.p.) and ventilated via a tracheal cannula (approximately 7 mL/kg, 1 Hz) with a mixture of air and oxygen (50:50). […] Ventilation was monitored by a flow transducer (Fleisch, type 0000) in-line with the respiratory pump. […] From these measurements of flow and differential pressure, both airways resistance (RL) and dynamic compliance (Cdyn) were calculated for each respiratory cycle on a digital electronic respiratory analyser (PMS, Mumed Ltd, UK). […]

The mark [2] stands for this setting: Table 1, read-out: Der p 1 IC50.
Where [3] appears, read: threshold stated in text, read-out: Der p 1 IC50.

Structures are written as SMILES. Read-outs that look alike come from different tables or passages of the source.

These results are taken from patent publication US8541363B2, “Pyruvamide compounds as inhibitors of dust mite group 1 peptidase allergen and their use” (St George's Hosptial Medical School, priority 2010, dated 2013).

Chain of Der p 1 (P08176 99-320): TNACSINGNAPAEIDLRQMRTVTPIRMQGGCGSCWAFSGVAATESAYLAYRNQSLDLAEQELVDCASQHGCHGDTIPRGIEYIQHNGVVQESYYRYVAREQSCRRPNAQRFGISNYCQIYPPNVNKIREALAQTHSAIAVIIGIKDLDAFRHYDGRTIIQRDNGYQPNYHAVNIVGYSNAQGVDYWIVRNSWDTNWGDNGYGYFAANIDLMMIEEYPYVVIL

Consider `CC(C)[C@H](NC(=O)[C@H](C)NC(=O)[C@@H](NC(=O)c1ccccc1)C(C)(C)C)C(=O)C(=O)NC1CCCCC1` [PVA-026], for which the values for the IC50 against Der p 1 (Der p 1 IC50) and at Der p 1 (setting [2]) were less than 0.02 µM and 0.014 µM, respectively. The “magnitude of second allergen challenge (change in airway resistance) compared to first challenge” value in test [1] is listed as “significantly reduced”.

On to `CC(C)[C@H](NC(=O)[C@H](C)NC(=O)[C@@H](NC(=O)c1ccncc1)C(C)(C)C)C(=O)C(=O)NC1CCCCC1` [PVA-038], for which the figures for the IC50 against Der p 1 (Der p 1 IC50) and on Der p 1 (setting [2]) were less than 0.02 µM and 0.0133 µM, respectively. Also, the “magnitude of second allergen challenge (change in airway resistance) compared to first challenge” value in test [1] is “significantly reduced”.

As to `CC(C)[C@H](NC(=O)[C@H](C)NC(=O)[C@@H](Cc1ccccc1)NC(=O)c1ccc(-c2ccccc2)cc1)C(=O)C(=O)NC1CCCCC1` [PVA-019], the IC50 (commonly the midpoint of a concentration-inhibition curve) at Der p 1 (setting [3]) is less than 0.2 µM.

Turning to `CC(C)[C@H](NC(=O)[C@H](C)NC(=O)[C@H](Cc1ccccc1)NC(=O)c1ccccc1)C(=O)C(=O)NCC(=O)N1CCCCC1` [PVA-067], the IC50 on Der p 1 (Der p 1 IC50) was less than 0.02 µM.

Consider `CC(C)[C@H](NC(=O)[C@H](C)NC(=O)[C@@H](NC(=O)c1ccc(OCc2nccn2C)cc1)C(C)(C)C)C(=O)C(=O)NC1CCCCC1` [PVA-077], for which the IC50 at Der p 1 (setting [3]) is less than 0.2 µM.

On to `CC(C)[C@H](NC(=O)[C@H](C)NC(=O)[C@@H](NC(=O)c1cccc(Cl)c1)C(C)(C)C)C(=O)C(=O)NCc1ccccc1` [PVA-183], for which, on Der p 1 (setting [3]), the IC50 is less than 0.02 µM.

As for `CC(C)[C@H](NC(=O)[C@H](C)NC(=O)[C@@H](NC(=O)c1cncc2ccccc12)C(C)(C)C)C(=O)C(=O)NC1CCCCC1` [PVA-073], the IC50 on Der p 1 (setting [3]) is less than 0.02 µM.

As to `COc1ccc(NC(=O)C(=O)[C@@H](NC(=O)[C@H](C)NC(=O)[C@H](Cc2ccccc2)NC(=O)c2ccccc2)C(C)C)cc1` [PVA-012], the IC50 at Der p 1 (setting [3]) was less than 2 µM.

As to `CC(C)[C@H](NC(=O)[C@H](C)NC(=O)[C@H](Cc1ccccc1)NC(=O)c1ccccc1)C(=O)C(=O)N[C@@H](C)C(=O)N1CCN(C)CC1` [PVA-094], at Der p 1 (Der p 1 IC50), the IC50 is less than 0.02 µM.

For `CC(C)[C@H](NC(=O)[C@H](C)NC(=O)[C@H](Cc1ccc(N2CCN(C)CC2)cc1)NC(=O)c1ccccc1)C(=O)C(=O)NCc1ccccc1` [PVA-198], the IC50 on Der p 1 (setting [3]) is less than 0.2 µM.

For the compound `CC(C)[C@H](NC(=O)[C@H](C)NC(=O)[C@@H](NC(=O)c1ccc(C(=O)O)cc1)C(C)(C)C)C(=O)C(=O)NCC(=O)N1CCN(C)CC1` [PVA-131], the IC50 on Der p 1 (setting [3]) is less than 0.2 µM.

As for `Cc1cc(C(=O)N[C@H](C(=O)N[C@@H](C)C(=O)N[C@H](C(=O)C(N)=O)C(C)C)C(C)(C)C)[nH]n1` [PVA-148], the IC50 on Der p 1 (setting [3]) is less than 0.2 µM.

Consider `CC(C)[C@H](NC(=O)[C@H](C)NC(=O)[C@@H](NC(=O)c1ccccc1)C(C)(C)C)C(=O)C(=O)NCc1cccc(C(N)=O)c1` [PVA-155], for which, at Der p 1 (setting [3]), the IC50 was less than 0.02 µM.
